In PMC6981123 (2020):

Tests used:
[1] = tested on: h-TELO (dual-labeled) (DNA, G4) AGGGTTAGGGTTAGGGTTAGGG; assay: FRET melting; settings: 100 mM K+; 10 mM HEPES, pH 7.4; MG 1.5 μM (3 equiv.), DNA 0.5 μM; Tm 49 to 76 °C
[2] = tested on: h-TELO (DNA, G4) AGGGTTAGGGTTAGGGTTAGGG; assay: fluorescence titration of MG emission; settings: 100 mM K+; 10 mM HEPES, pH 7.4, 25 °C; MG 10 μM, h-TELO 0-6 μM
[3] = tested on: h-TELO (DNA, G4) AGGGTTAGGGTTAGGGTTAGGG; assay: ITC; settings: 100 mM K+; 10 mM HEPES, pH 7.4, 298 K; h-TELO 5 μM in cell

Structure (SMILES): CCCCCCCCCCCCCCCCCC(=O)NCc1cn(CCCC(=O)OC[C@H]2O[C@@H](n3cnc4c(=O)[nH]c(N)nc43)[C@@H]3OC(C)(C)O[C@@H]32)nn1
- ΔTm [1]: 27 °C
- Kd [2]: 3.2 µM
- Kd [3]: 4.48 µM
